Laboratory results reported in patent US8637252B2, “Methods and compositions for determining altered susceptibility of HIV-1 to anti-HIV drugs” (Monogram Biosciences, Inc., priority 2011, dated 2014).
Several values for one entry are separate records, joined by “and”; a condition that tells them apart may be missing. Identical values can stand only once.

Experiments:
[1] = system: HIV-1 (patient-derived RHIN segment); assay: phenotypic drug resistance test, resistance test vectors with patient-derived RHIN segment, luciferase, 293 cells; assay type: cell-based
Outline: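 The patient RHIN segment (RT aa 319–440 including RNase H, plus integrase) was RT-PCR-amplified from plasma viral RNA and cloned as pools of ≥50 members into a replication-defective HIV-1 vector carrying luciferase in env. Particles were pseudotyped with amphotropic MuLV 4070A envelope in packaging cells.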

[2] = system: HIV-1 (patient-derived POL segment); assay: phenotypic drug resistance test, resistance test vectors with patient-derived POL segment (entire pol gene), luciferase, 293 cells; assay type: cell-based
Description: Patient-derived segment(s) corresponding to the entire pol gene, encoding HIV protease, reverse transcriptase (including RNAse H), and integrase (hereinafter “POL”), the portion of pol encoding amino acids 1-305 of reverse transcriptase (hereinafter “PR-RT”), the portion of pol encoding amino acids 319-440 of reverse transcriptase (including RNAse H), and integrase (hereinafter “RHIN”), were amplified by the reverse transcription-polymerase chain reaction method (RT-PCR) using viral RNA isolated from viral particles present in the plasma or serum of HIV-infected individuals as described below. The portion of pol encoding protease, amino acids 1-531 of reverse transcriptase (including RNase H) (hereinafter “PRRT-RH”), or the portion of pol encoding protease, reverse transcriptase (including RNAse H) and integrase (hereinafter “PRRT-RHIN”), were assembled from amplicons described above by standard recombinant DNA techniques involving a KpnI restriction site at amino acid 400 or a Pin A1 site at amino acid 315.
Virus was pelleted by centrifugation at 20,400×g for 60 min from plasma (typically, 1 ml) prepared from blood samples collected in evacuated tubes containing either EDTA, acid-citrate dextrose, or heparin as an anticoagulant. Virus particles were disrupted by resuspending the pellets in 200 [1.1 of lysis buffer (4 M guanidine thiocyanate, 0.1 M Tris HCl (pH 8.0), 0.5% sodium lauryl sarcosine, 1% dithiothreitol). RNA was extracted from viral lysates by using oligo(dT) linked to magnetic beads (Dynal, Oslo, Norway). Reverse transcription was performed with Superscript III (Invitrogen) at 50 degrees for 1 hour using primer 1.
From the resultant cDNA either POL or RHIN sequences were amplified using the Advantage High Fidelity PCR kit (BD Biosciences; Clontech). POL amplification products are made using forward Primer 3 containing an Apal site and reverse Primer 4 containing a Xho 1 site. RHIN amplification products are made using forward Primer 2 containing a P1NA1 site and reverse Primer 4 containing a Xho 1 site.
A retroviral vector designed to measure antiretroviral drug susceptibility was constructed by using an infectious molecular clone of HIV-1. The vector, referred to herein as an indicator gene viral vector (IGVV), is replication defective and contains a luciferase expression cassette inserted within a deleted region of the envelope (env) gene. The IGVV is described in U.S. Pat. No. 5,837,464 (International Publication Number WO 97/27319) which is hereby incorporated by reference in its entirety. This retroviral vector was further modified to allow insertion of either the entire pol gene (POL) or the portion of poi encoding amino acids 319-440 of reverse transcriptase, the RNase H portion of reverse transcriptase, and integrase (REIN) by engineering an Xho l restriction enzyme recognition site into vif. Prior to doing this, an Xho 1 site in nef was deleted. Resistance Test vectors (RTVs) were constructed by incorporating amplified POL or RHIN into the IGVV by using Apal and Xhol or PinAI and Xho 1 restriction sites respectively. RTVs were prepared as libraries (pools) in order to capture and preserve the pol or RHIN sequence heterogeneity of the virus in the patient. POL amplification products were digested with Apal and Xhol, purified by agarose gel electrophoresis, and ligated to ApaI- and Xhol-digested IGVV DNA. RHIN amplification products were digested with PinAI and Xho/, purified by agarose gel electrophoresis, and ligated to PinAI and Xhol-digested IGVV DNA. Ligation reactions were used to transform competent Escherichia coli (Invitrogen, Carlsbad, Calif.). An aliquot of each transformation was plated onto agar, and colony counts were used to estimate the number of patient-derived segments represented in each RTV library. RTV libraries that comprised less than 50 members are not considered representative of the patient virus. […]

[3] = Sample 47 (K103K/N, V106V/A, Y181Y/C, G190G/A)
[4] = Sample 58 (K103N, Y181Y/C, G190G/A)
[5] = Sample 62 (K103H, P225P/H, T369T/I)
[6] = Sample 90 (K103K/N, Y181C, G190A)

CC(C)Nc1cccnc1N1CCN(C(=O)c2cc3cc(NS(C)(=O)=O)ccc3[nH]2)CC1 [DLV, delavirdine]
fold change in IC50, RHIN ([1]; Sample 31 (K103N)): 1.1 fold | fold change in IC50, RHIN ([1]; Sample 33 (K103S)): 0.7 fold | fold change in IC50, RHIN ([1]; Sample 34): 0.7 fold | fold change in IC50, RHIN ([1]; Sample 35 (K103H)): 0.8 fold | fold change in IC50, RHIN ([1]; Sample 36 (K103K/W)): 0.9 fold | fold change in IC50, RHIN ([1]; Sample 38 (K103N)): 0.5 fold | fold change in IC50, RHIN ([1]; Sample 39 (T369A)): 1.2 fold | fold change in IC50, RHIN ([1]; Sample 42 (G190G/A)): 0.5 fold | fold change in IC50, RHIN ([1]; Sample 45): 1.0 fold | fold change in IC50, RHIN [1, 3]: 0.6 fold | fold change in IC50, RHIN ([1]; Sample 50 (K103N)): 0.4 fold | fold change in IC50, RHIN ([1]; Sample 51): 0.4 fold | fold change in IC50, RHIN ([1]; Sample 52): 0.9 fold | fold change in IC50, RHIN [1, 4]: 1.5 fold | fold change in IC50, RHIN [1, 5]: 3.4 fold and 3.36 fold | fold change in IC50, RHIN ([1]; Sample 64 (T369T/A)): 0.3 fold | fold change in IC50, RHIN ([1]; Sample 69): 0.7 fold | fold change in IC50, RHIN ([1]; Sample 72): 1.7 fold | fold change in IC50, RHIN ([1]; Sample 80 (K103K/N, Y181Y/C)): 0.58 fold | fold change in IC50, RHIN ([1]; Sample 81 (K103N, P225H)): 0.9 fold | fold change in IC50, RHIN ([1]; Sample 84): 0.4 fold | fold change in IC50, RHIN ([1]; Sample 85): 1.4 fold | fold change in IC50, RHIN ([1]; Sample 87): 1.3 fold | fold change in IC50, RHIN ([1]; Sample 89 (L1001, K103N)): 1.5 fold | fold change in IC50, RHIN [1, 6]: 0.6 fold | fold change in IC50, RHIN ([1]; Sample 92): 0.3 fold | fold change in IC50, RHIN ([1]; Sample 93): 0.7 fold | fold change in IC50, pol ([2]; Sample 31 (K103N)): 28.0 fold | pol/PR-RT ratio ([2]; Sample 31 (K103N)): 1.7 | fold change in IC50, pol ([2]; Sample 33 (K103S)): 5.7 fold | pol/PR-RT ratio ([2]; Sample 33 (K103S)): 0.7 | fold change in IC50, pol ([2]; Sample 34): 0.4 fold | pol/PR-RT ratio ([2]; Sample 34): 1.0 | fold change in IC50, pol ([2]; Sample 35 (K103H)): 5.4 fold | pol/PR-RT ratio ([2]; Sample 35 (K103H)): 0.8 | fold change in IC50, pol ([2]; Sample 36 (K103K/W)): 1.9 fold | pol/PR-RT ratio ([2]; Sample 36 (K103K/W)): 0.2 | fold change in IC50, pol ([2]; Sample 38 (K103N)): 66.0 fold | pol/PR-RT ratio ([2]; Sample 38 (K103N)): 0.5 | fold change in IC50, pol ([2]; Sample 39 (T369A)): 1.2 fold | pol/PR-RT ratio ([2]; Sample 39 (T369A)): 5.1 | fold change in IC50, pol ([2]; Sample 42 (G190G/A)): 0.2 fold | pol/PR-RT ratio ([2]; Sample 42 (G190G/A)): 0.5 | fold change in IC50, pol ([2]; Sample 45): 0.1 fold | pol/PR-RT ratio ([2]; Sample 45): 0.7 | fold change in IC50, pol [2, 3]: 5.4 fold | pol/PR-RT ratio [2, 3]: 0.9 | fold change in IC50, pol ([2]; Sample 50 (K103N)): 65.4 fold | pol/PR-RT ratio ([2]; Sample 50 (K103N)): 0.3 | fold change in IC50, pol ([2]; Sample 51): 0.3 fold | pol/PR-RT ratio ([2]; Sample 51): 0.9 | fold change in IC50, pol ([2]; Sample 52): 2.7 fold | pol/PR-RT ratio ([2]; Sample 52): 0.8 | fold change in IC50, pol [2, 4]: 250.0 fold | pol/PR-RT ratio [2, 4]: 1.7 | fold change in IC50, pol [2, 5]: 140.0 fold and 140.00 fold | pol/PR-RT ratio [2, 5]: 8.8 | fold change in IC50, pol ([2]; Sample 64 (T369T/A)): 0.3 fold | pol/PR-RT ratio ([2]; Sample 64 (T369T/A)): 0.2 | fold change in IC50, pol ([2]; Sample 69): 1.8 fold | pol/PR-RT ratio ([2]; Sample 69): 1.2 | fold change in IC50, pol ([2]; Sample 72): 1.2 fold | pol/PR-RT ratio ([2]; Sample 72): 1.4 | fold change in IC50, pol ([2]; Sample 80 (K103K/N, Y181Y/C)): 22.0 fold | pol/PR-RT ratio ([2]; Sample 80 (K103K/N, Y181Y/C)): 0.3 | fold change in IC50, pol ([2]; Sample 81 (K103N, P225H)): 9.5 fold | pol/PR-RT ratio ([2]; Sample 81 (K103N, P225H)): 0.8 | fold change in IC50, pol ([2]; Sample 84): 0.5 fold | pol/PR-RT ratio ([2]; Sample 84): 0.6 | fold change in IC50, pol ([2]; Sample 85): 69.0 fold | pol/PR-RT ratio ([2]; Sample 85): 2.7 | fold change in IC50, pol ([2]; Sample 87): 0.7 fold | pol/PR-RT ratio ([2]; Sample 87): 0.9 | fold change in IC50, pol ([2]; Sample 89 (L1001, K103N)): 250.0 fold | pol/PR-RT ratio ([2]; Sample 89 (L1001, K103N)): 1.0 | fold change in IC50, pol [2, 6]: 4.8 fold | pol/PR-RT ratio [2, 6]: 1.1 | fold change in IC50, pol ([2]; Sample 92): 0.8 fold | pol/PR-RT ratio ([2]; Sample 92): 0.8 | fold change in IC50, pol ([2]; Sample 93): 0.2 fold | pol/PR-RT ratio ([2]; Sample 93): 0.6
